Measured values reported in patent US8008329B2 (Dong Wha Pharmaceutical Co., Ltd., priority 2008, dated 2011).
Marks after values point to notes of the source that are not given here.

System: osteoclast differentiation
Assay: Osteoclast differentiation in co-culture of mouse bone marrow cells and ST2 cells, TRAP staining (Examples 8-9)
Format: cell-based
Conditions: for % number of osteoclast (vs. solvent control group): 0.1 μM each, day 7; for activity at 0.1 µM: Mus musculus, Osteoclast, 168 h, Individual treatment (compounds), day 7, read-out: % number of osteoclast (vs. solvent control group)
Method: The differentiation of osteoclast from mouse bone marrow cells was induced by using co-culture system, and inhibitory effect of the drug on osteoclast differentiation was evaluated by treatment of single or combination formulation. Co-culture was performed using mouse bone marrow cells and ST cells of bone marrow-derived stromal cell.
Femora and tibia were aseptically ectomized from 6˜8 week-old male ddY mice to harvest bone marrow cells by a general method using a syringe. The red blood cells were removed from the bone marrow cells, followed by centrifugation. The bone marrow cells were suspended in α-MEM medium supplemented with 10% fetal bovine serum, and the numbers of the eukaryotic cells in the harvested bone marrow cells were counted and then immediately used for a co-culture system.
ST2 cells (RIKEN Cell Bank, Tsukuba, Japan) were cultured in α-MEM medium supplemented with 10% fetal bovine serum until confluent. Then, these cells were diluted to a desired cell number, and used for the experiment.
The bone marrow cells (1×10^5 cells/well) and ST2 cells (3,000 cells/well) prepared in the above were plated in a 96-well plate using α-MEM medium supplemented with 10% fetal bovine serum. At this time, differentiation factors, 1α,25-dihydroxyvitamin D3 (10^−8 M, hereinbelow, referred to as vitamin D3) and dexamethasone (10^−8 M), were co-added to the medium to induce osteoclast differentiation. The medium was replaced with fresh media containing the differentiation factors every 2 to 3 days.
After 7 days, when multinucleated osteoclasts were observed, the medium was removed from the wells, and then the cells were fixed with PBS containing 10% Formalin. Tartrate-Resistant Acid Phosphatase (hereinbelow, referred to as TRAP) was used as a marker to measure the mature osteoclast in consideration of its characteristics showing a positive reaction to a TRAP staining solution. The TRAP staining solution was prepared in such the manner that a substrate, naphtol AS-MS phosphate and a coloring agent (Fast Red Violet LB salt) were dissolved in N,N-dimethylformamide. A 0.1 N NaHCO3 buffer solution containing 50 mM tartaric acid was added thereto, and the mixture was stored at a refrigerator prior to use as a staining solution. The osteoclasts with 6-7 or more nuclei showing a TRAP-positive reaction were counted under a microscope.
Alendronic acid was dissolved in distilled water at a concentration of 0.1 mM, and benzamidine derivatives were dissolved in DMSO at a concentration of 0.1 mM. All of them were diluted 1,000 fold with the differentiation media to a final concentration of 0.1 μM, respectively. In this connection, a control group was maintained in 0.1% DMSO.
As the above described, the sample substances and cells, which were diluted to the desired concentrations, were plated in 96-well plate, and co-cultured. On days 3 and 5 of culture, the media were replaced with fresh differentiation media containing the sample substances. On day 7 of culture, TRAP staining was performed to count the mature multinucleated osteoclast that was formed by differentiation. The mature osteoclasts with 6 or more nuclei were counted under a microscope. The results were expressed as a percentage (%) of the number of mature osteoclast observed in each experimental group, when the number of mature osteoclast in the control group (solvent only) was regarded as 100%. The experiment was performed with 4 wells per experimental group (n=4), and the results were expressed as mean value±standard deviation. In addition, the experiment was repeated at least two times, and Student t-test was applied for significant difference between experimental groups.
The experiment was performed in the same manner as in Example 8 to evaluate the effect of individual or combination treatment of risedronic acid and benzamidine derivatives of Formula 1 on osteoclast differentiation, except using 0.1 μM risedronic acid instead of 0.1 μM alendronic acid. […]

[1] = Combination treatment (alendronic acid + compounds)
[2] = Combination treatment (risedronic acid + compounds)

| SMILES | % number of osteoclast (vs. solvent control group) [1] | % number of osteoclast (vs. solvent control group) [2] | activity at 0.1 µM [%] |
| --- | --- | --- | --- |
| CCCNCc1sc(C)nc1-c1ccc(OCCCCCOc2ccc(C(=N)NO)cc2)cc1 [Compound 301, N-hydroxy-4-{5-[4-(2-methyl-5-propylaminomethyl-thiazol-4-yl)-phenoxy]-pentyloxy}-benzamidine] | 10 ± 2.3^ab % | 6 ± 2.3^ac % | 49 ± 5.1 |
| CCc1sc(NC)nc1-c1ccc(OCCCCCOc2ccc(C(=N)NO)cc2)cc1 [Compound 96, N-hydroxy-4-{5-[4-(5-ethyl-2-methylamino-1,3-thiazol-4-yl)phenoxy]pentyloxy}-benzamidine] | 55 ± 10.0% | 34 ± 7.1^ac % | 74 ± 8.1 |
| Cc1nc(-c2ccc(OCCCCCOc3ccc(C(=N)NO)cc3)cc2)c(CCNC(C)(C)C)s1 [Compound 234, N-hydroxy-4-(5-{4-[5-(2-tert-butylamino-ethyl)-2-methyl-thiazol-4-yl]-phenoxy}-pentyloxy)-benzamidine] | 30 ± 6.1^b % | 22 ± 4.0^ac % | 44 ± 7.5 |
| Cc1nc(-c2ccc(OCCCCCOc3ccc(C(=N)NO)cc3)cc2)c(CCNCCCOC(C)C)s1 [Compound 220, N-hydroxy-4-[5-(4-{5-[2-(3-isopropoxy-propylamino)-ethyl]-2-methyl-thiazol-4-yl}-phenoxy)-pentyloxy]-benzamidine] | 53 ± 4.7^ab % | 40 ± 5.1^ac % | 69 ± 3.2 |
| Cc1nc(-c2ccc(OCCCCCOc3ccc(C(=N)NO)cc3)cc2)cs1 [Compound 3, N-hydroxy-4-{5-[4-(2-methyl-1,3-thiazol-4-yl)phenoxy]pentyloxy}-benzamidine] | 40 ± 4.6^b % | 33 ± 6.8^c % | 52 ± 8.9 |
| CN(C)c1nc(-c2ccc(OCCCCCOc3ccc(C(=N)NO)cc3)cc2)c(CCN2CCSCC2)s1 [Compound 267, N-hydroxy-4-(5-{4-[2-dimethylamino-5-(2-thiomorpholin-4-yl-ethyl)-thiazol-4-yl]-phenoxy}-pentyloxy)-benzamidine] | 33 ± 5.3^ab % | 13 ± 2.4^ac % | 68 ± 8.6 |
| N=C(NO)c1ccc(OCCCCCOc2ccc(-c3nc(NC(=O)c4cccnc4)sc3CC3CCCC3)cc2)cc1 [Compound 89, N-hydroxy-4-{5-[4-(5-cyclopentylmethyl-2-(3-pyridylcarbonyl)amino-1,3-thiazol-4-yl)phenoxy]pentyloxy}-benzamidine] | 38 ± 1.9^ab % | 39 ± 2.7^ac % | 58 ± 5.1 |
| CCCNc1nc(-c2ccc(OCCCCCOc3ccc(C(=N)NO)cc3)cc2)c(CC2CCCC2)s1 [Compound 111, N-hydroxy-4-{5-[4-(5-cyclopentylmethyl-2-propylamino-1,3-thiazol-4-yl)phenoxy]pentyloxy}-benzamidine] | 51 ± 6.0% | 32 ± 5.2^ac % | 76 ± 12.2 |
| CCc1nc(-c2ccc(OCCCCCOc3ccc(C(=N)NO)cc3)cc2)c(CCN2CCOCC2)s1 [Compound 255, N-hydroxy-4-(5-{4-[2-ethyl-5-(2-morpholin-4-yl-ethyl)-thiazol-4-yl]-phenoxy}-pentyloxy)-benzamidine] | 18 ± 1.7^ab % | 12 ± 3.1^ac % | 50 ± 3.9 |
| Cc1nc(-c2ccc(OCCCCCOc3ccc(C(=N)NO)cc3)cc2)c(N(C)C)s1 [Compound 326, N-hydroxy-4-{5-[4-(5-dimethylamino-2-methyl-thiazol-4-yl)-phenoxy]-pentyloxy}-benzamidine] | 34 ± 2.7^b % | 15 ± 6.0^ac % | 46 ± 11 |
| Cc1nc(-c2ccc(OCCCCCOc3ccc(C(=N)NO)cc3)cc2)c(CNCCCn2ccnc2)s1 [Compound 303, N-hydroxy-4-[5-(4-{5-[(3-imidazol-1-yl-propylamino)-methyl]-2-methyl-thiazol-4-yl}-phenoxy)-pentyloxy]-benzamidine] | 12 ± 2.5^ab % | 8 ± 2.2^ac % | 53 ± 10.7 |
| CCc1sc(NS(=O)(=O)CC)nc1-c1ccc(OCCCCCOc2ccc(C(=N)NO)cc2)cc1 [Compound 95, N-hydroxy-4-{5-[4-(2-ethanesulphonylamino-5-ethyl-1,3-thiazol-4-yl)phenoxy]pentyloxy}-benzamidine] | 37 ± 10.3^ab % | 33 ± 6.8^ac % | 90 ± 5.4 |
| COCCN(CCOC)c1nc(-c2ccc(OCCCCCOc3ccc(C(=N)NO)cc3)cc2)c(CCN2CCOCC2)s1 [Compound 271, N-hydroxy-4-(5-{4-[2-[bis-(2-methoxy-ethyl)-amino]-5-(2-morpholin-4-yl-ethyl)-thiazol-4-yl]-phenoxy}-pentyloxy)-benzamidine] | 13 ± 3.7^ab % | 16 ± 2.9^ac % | 30 ± 5.3 |
| CCN(CC)c1nc(-c2ccc(OCCCCCOc3ccc(C(=N)NO)cc3)cc2)c(C(C)C)s1 [Compound 162, N-hydroxy-4-{5-[4-(5-isopropyl-2-diethylamino-1,3-thiazol-4-yl)phenoxy]pentyloxy}-benzamidine] | 78 ± 1.8% | 61 ± 7.5^ac % | 98 ± 8.2 |
| Cc1nc(-c2ccc(OCCCCCOc3ccc(C(=N)NO)c(O)c3)cc2)c(C(C)C)s1 [Compound 188, 2,N-dihydroxy-4-{5-[4-(5-isopropyl-2-methyl-1,3-thiazol-4-yl)-phenoxy]-pentyloxy}-benzamidine] | 35 ± 3.2^ab % | 23 ± 5.1^ac % | 56 ± 5.4 |
| N=C(NO)c1ccc(OCCCCCOc2ccc(-c3nc(C4CCCCC4)sc3CCNC3CC3)cc2)cc1 [Compound 252, N-hydroxy-4-(5-{4-[2-cyclohexyl-5-(2-cyclopropylamino-ethyl)-thiazol-4-yl]-phenoxy}-pentyloxy)-benzamidine] | 33 ± 6.6^b % | 19 ± 4.0^ac % | 44 ± 2.7 |
| CCCN(CCC)CCc1sc(C2CCCCC2)nc1-c1ccc(OCCCCCOc2ccc(C(=N)NO)cc2)cc1 [Compound 251, N-hydroxy-4-(5-{4-[2-cyclohexyl-5-(2-dipropylamino-ethyl)-thiazol-4-yl]-phenoxy}-pentyloxy)-benzamidine] | 20 ± 6.4^ab % | 18 ± 4.4^ac % | 45 ± 9.6 |
| Cc1nc(-c2ccc(OCCCCC(=O)Nc3ccc(C(=N)NO)cc3)cc2)c(C(C)C)s1 [Compound 182, N-hydroxy-4-{5-[4-(5-isopropyl-2-methyl-1,3-thiazol-4-yl)-phenoxy]-pentanoyl-amino}-benzamidine] | 45 ± 6.7% | 41 ± 5.1^c % | 82 ± 12 |
| N=C(NO)c1ccc(OCCCCCOc2ccc(-c3nc(-c4ccccc4)sc3CCN3CCOCC3)cc2)cc1 [Compound 254, N-hydroxy-4-(5-{4-[5-(2-morpholin-4-yl-ethyl)-2-phenyl-thiazol-4-yl]-phenoxy}-pentyloxy)-benzamidine] | 29 ± 6.3^b % | 11 ± 2.5^ac % | 40 ± 8.3 |
